“And” between values parts separate entries of the source, which are not always exact repeats. Equal values may be shown once.
Columns and labels:
hGALK1 [1] = target: T1, hGALK1 (Homo sapiens, UniProt P51570, E253A/K252A); assay: Kinase-Glo luminescent hGALK1 activity assay; assay type: biochemical; set-up: Vmaxapp, substrate galactose, with ligand (+) / Kmapp, substrate galactose, with ligand (+): unit not given here; settings: for mode of inhibition with respect to galactose: 0–250 μM galactose, best-fit model in GraphPad Prism; for Kmapp, substrate galactose, with ligand (+) / Vmaxapp, substrate galactose, with ligand (+): 35 µM ATP, maximum tested concentration: 1 mM T1, 15 mM fragment 3, 2 mM 11–13; for inhibition at 2000 µM: 2 mM compound; for Kinase-Glo LLEAT: calculated cumulatively over N1 and N2
T1 construct: A hGALK1 construct, encoding full-length protein harboring the surface entropy[41] mutations K252A:E253A; His6 (N); made in house; host or cells: E. coli BL21(DE3)
Method: hGALK1 activity in vitro was determined using the Kinase-Glo luminescent kinase assay (Promega), according to the manufacturer’s protocol. […] Following a 1-h RT incubation, 10 μL of Kinase-Glo Plus detection reagent was added (final assay volume: 20 μL/well), and after a further 20 minutes RT incubation, luminescence was detected using a Pherastar FSX plate reader (BMG Labtech) containing a luminescence optics module. […] All reactions were performed in technical triplicates for two different preparations of hGALK1.
Data were plotted using GraphPad Prism software; curve fitting was performed with a nonlinear least-squares regression fit to the mixed, competitive, noncompetitive, and uncompetitive inhibition models from the GraphPad Prism enzyme kinetics–inhibition equations and the best fit selected by comparison of Akaike’s Information Criterion (AICc) probability scores and extra sum-of-squares F test P values calculated by the software.

hGALK1 [2] = target: T1, hGALK1; assay: Surface plasmon resonance (SPR) binding assay; settings: hGALK1 immobilized on CM5 chip, analyte 0.195–200 μM, n = 1
Method: Purified hGALK1 (30 μg/mL), diluted in acetate buffer at pH 5, was attached via covalent coupling to a density of 13000 RU on a CM5 chip. The assay buffer was 50 mM sodium phosphate, pH 7.5, 200 mM NaCl, 0.5 mM TCEP, 5% DMSO, and 0.05% TWEEN20. A serial dilution (11 concentrations) was prepared in the above buffer for each analyte (3, 11–13) by 1:1 dilution from 200 μM to 0.195 μM, and the subsequent solutions were passed over the chip at a flow rate of 30 μL/min. Data are from an n = 1 experiment.

hMVK = target: T2, hMVK (Homo sapiens, UniProt Q03426); assay: Kinase-Glo hMVK activity assay; assay type: biochemical; settings: 1 mM compound
T2 construct: Constructs encoding full-length hGALK2 (Met1-Ala458) and hMVK (Met1-Leu396); His6-Strep-Strep tag followed by TEV protease cleavage site (N); made in house; host or cells: E. coli BL21(DE3)
Method: (§1) hGALK1 activity in vitro was determined using the Kinase-Glo luminescent kinase assay (Promega), according to the manufacturer’s protocol. […] Similarly, hGALK2 activity and inhibition was measured with reactions containing 50 nM hGALK2, 100 μM N-acetylgalactosamine, and 35 μM ATP in the above-described buffer and hMVK activity and inhibition was measured with reactions containing 250 nM hMVK, 100 μM mevalonate, and 35 μM ATP in the above-described buffer. Following a 1-h RT incubation, 10 μL of Kinase-Glo Plus detection reagent was added (final assay volume: 20 μL/well), and after a further 20 minutes RT incubation, luminescence was detected using a Pherastar FSX plate reader (BMG Labtech) containing a luminescence optics module. To determine the inhibition mode with respect to galactose, 10 nM hGALK1 and 35 μM ATP in an assay buffer was added to an array of six fragment (0–15 mM) or 12 compound (0–2 mM) concentrations against six galactose concentrations (0–250 μM), with a final reaction volume of 10 μL/well dispensed into 384-well assay plates (Greiner), and measured as described above. All reactions were performed in technical triplicates for two different preparations of hGALK1. Reaction rate, defined as total ATP consumed over the 1-h hGALK1 reaction, was determined using the following equation, where Lumreaction = mean value of measured luminescence of each reaction and Lum35 = measured luminescence with no galactose (i.e., luminescence of 35 μM ATP): [drawing 1]

hGALK1 [3] = target: T1, hGALK1; assay: Amplex Red fluorescence-based hGALK1 activity assay (coupled with galactose oxidase); assay type: biochemical; set-up: Vmaxapp, substrate ATP, with ligand (+) / Kmapp, substrate ATP, with ligand (+): unit not given here; settings: for mode of inhibition with respect to ATP: 0–250 μM ATP, best-fit model in GraphPad Prism; for Kmapp, substrate ATP, with ligand (+) / Vmaxapp, substrate ATP, with ligand (+): 50 µM galactose, maximum tested concentration: 1 mM T1, 15 mM fragment 3, 2 mM 11–13; for inhibition at 2000 µM: 2 mM compound; for Amplex Red LLEAT: calculated cumulatively over N1 and N2
Excerpt: Consequently, to confirm the mode of inhibition of the spiro-benzoxazole inhibitors with respect to ATP, we adopted the Amplex Red fluorescence-based assay[33],[34] by coupling the hGALK1 reaction with D. dendroides galactose oxidase (GAO; EC 1.1.3.9) to measure the level of galactose remaining after being depleted as a substrate for hGALK1. In this method, hydrogen peroxide generated by the oxidation of galactose by GAO is used by horseradish peroxidase to convert the nonfluorescent substrate Amplex Red into its highly fluorescent product resorufin; therefore, the resultant fluorescent signal is inversely proportional to hGALK1 enzyme activity. We optimized several parameters of this assay to allow measurement of hGALK1 activity for the first time (Figure S3; Supplementary Results).
The Amplex Red assay reagent contained horseradish peroxidase (EC 1.11.1.7, 0.2 U/mL), its substrate Amplex Red (10-acetyl-3,7-dihydroxyphenoxazine, 100 μM), and galactose oxidase (EC 1.1.3.9, 4 U/mL). The assay buffer used was the same as in the Kinase-Glo assay. […] Amplex Red reagent was added at a 1:1 volume to the hGALK1 reaction after 1-h incubation at RT. Fluorescence emission was measured at 585 nm, with excitation at 570 nm, after a further incubation period of 40 minutes, using a Pherastar FSX plate reader with a FI 540 590 optics module. Reactions were performed in technical triplicates for two biological replicates, and data were plotted and fitted as described for the Kinase-Glo assay except that the reaction rate, defined as total galactose consumed over the 1-h hGALK1 reaction, was determined using the following equation, where Fluorreaction = mean value of measured fluorescence of each reaction and Fluor50 = measured fluorescence with no galactose (i.e., fluorescence of 50 μM galactose): [drawing 2]

hGALK2 = target: T3, hGALK2 (Homo sapiens, UniProt Q01415); assay: Kinase-Glo hGALK2 activity assay; assay type: biochemical; settings: 1 mM compound
T3 construct: Constructs encoding full-length hGALK2 (Met1-Ala458) and hMVK (Met1-Leu396); His6-Strep-Strep tag followed by TEV protease cleavage site (N); made in house; host or cells: E. coli BL21(DE3)
T3 sequence (Q01415 1-458): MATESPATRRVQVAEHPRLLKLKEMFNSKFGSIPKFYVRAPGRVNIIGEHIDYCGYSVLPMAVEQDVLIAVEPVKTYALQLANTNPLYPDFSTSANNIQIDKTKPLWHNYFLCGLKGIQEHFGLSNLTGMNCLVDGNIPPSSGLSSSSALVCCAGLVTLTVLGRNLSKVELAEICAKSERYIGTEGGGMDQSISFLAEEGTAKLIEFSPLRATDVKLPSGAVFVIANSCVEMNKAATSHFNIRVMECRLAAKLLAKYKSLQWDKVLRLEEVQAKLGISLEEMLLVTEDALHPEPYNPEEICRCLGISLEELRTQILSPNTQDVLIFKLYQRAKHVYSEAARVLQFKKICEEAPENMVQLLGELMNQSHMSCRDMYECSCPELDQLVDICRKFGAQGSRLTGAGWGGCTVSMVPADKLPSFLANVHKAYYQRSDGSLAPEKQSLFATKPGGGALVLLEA
Method: as §1

[4] = biological replicate N1, read-out: Amplex Red N1 IC50
[5] = biological replicate N2, read-out: Amplex Red N2 IC50
[6] = biological replicate N1, read-out: Kinase-Glo N1 IC50
[7] = biological replicate N2, read-out: Kinase-Glo N2 IC50
[8] = range over Kinase-Glo and Amplex Red assays
[9] = range over Kinase-Glo and Amplex Red assays, two biological replicates, read-out: IC50 values, range

T1 sequence (P51570 whole entry K252A/E253A, the tested form may be a part): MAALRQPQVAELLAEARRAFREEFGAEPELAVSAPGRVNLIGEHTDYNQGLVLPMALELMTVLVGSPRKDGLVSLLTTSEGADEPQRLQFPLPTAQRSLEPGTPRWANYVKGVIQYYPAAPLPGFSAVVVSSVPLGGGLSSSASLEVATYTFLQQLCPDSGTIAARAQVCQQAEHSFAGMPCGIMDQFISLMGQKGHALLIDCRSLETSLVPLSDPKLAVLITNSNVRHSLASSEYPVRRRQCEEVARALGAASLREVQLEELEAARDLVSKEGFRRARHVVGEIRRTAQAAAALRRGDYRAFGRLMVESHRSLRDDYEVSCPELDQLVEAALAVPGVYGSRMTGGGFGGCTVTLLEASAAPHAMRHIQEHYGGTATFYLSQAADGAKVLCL
T2 sequence (Q03426 whole entry): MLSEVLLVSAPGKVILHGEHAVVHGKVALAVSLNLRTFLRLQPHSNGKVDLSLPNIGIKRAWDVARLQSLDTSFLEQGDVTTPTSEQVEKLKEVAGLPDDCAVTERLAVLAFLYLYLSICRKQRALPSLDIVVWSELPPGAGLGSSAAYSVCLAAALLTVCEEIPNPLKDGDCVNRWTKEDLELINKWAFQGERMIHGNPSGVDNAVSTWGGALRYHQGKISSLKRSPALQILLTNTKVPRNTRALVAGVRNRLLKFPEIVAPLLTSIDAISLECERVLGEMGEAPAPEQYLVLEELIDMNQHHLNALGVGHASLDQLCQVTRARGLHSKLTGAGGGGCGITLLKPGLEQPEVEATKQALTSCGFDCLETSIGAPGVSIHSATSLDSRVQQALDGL

## O=C(OCc1ccc(Cl)cc1)c1cccnc1 [fragment 4]
hGALK1 [1]; 5 mM fragment
  change in hGALK1 activity, strictly standardized mean difference (SSMD): < 0.5

## COCCNC(=O)CNc1cnc2cc(Cl)c(Cl)cc2n1 [compound 12]
hGALK1 [2]
  Kd: ~100 µM and 97 µM
hMVK
  inhibition at 1000 µM: < 10%
hGALK1 [3]; 50 μM galactose
  mode of inhibition with respect to ATP: noncompetitive
hGALK1 [3]
  Kmapp, substrate ATP, with ligand (+): 40.4 ± 4.7
  Vmaxapp, substrate ATP, with ligand (+): 11.8 ± 0.2
  inhibition at 2000 µM: > 50%
  Amplex Red LLEAT: 1.13 kJ/mol
hGALK1 [3]; [4]
  IC50: 45 µM
hGALK1 [3]; [5]
  IC50: 25 µM
hGALK2
  inhibition at 1000 µM: < 10%
hGALK1 [1]; 35 μM ATP
  mode of inhibition with respect to galactose: noncompetitive
hGALK1 [1]
  Kmapp, substrate galactose, with ligand (+): 41.5 ± 12.4
  Vmaxapp, substrate galactose, with ligand (+): 9.4 ± 1.1
  inhibition at 2000 µM: > 50%
  Kinase-Glo LLEAT: 0.962 kJ/mol
hGALK1 [1]; [6]
  IC50: 198 µM
hGALK1 [1]; [7]
  IC50: 96 µM
hGALK1 [1]; [8]
  LLEAT (Astex ligand lipophilicity efficiency score), range: 0.962 to 1.13 kJ/mol
hGALK1 [1]; [9]
  IC50: 25 to 198 µM

## O=C1CCCC2=C1C1(CCCC1)N=C(Nc1nc3ccccc3o1)N2 [T1, 2′-(benzo[d]oxazol-2-ylamino)-7′,8′-dihydro-1′H-spiro[cyclopentane-1,4′-quinazolin]-5′(6′H)-one, reference compound]
hGALK1 [3]
  Kmapp, substrate ATP, with ligand (+): 63.5 ± 2.6
  Vmaxapp, substrate ATP, with ligand (+): 27.9 ± 1.5
hGALK1 [1]
  Kmapp, substrate galactose, with ligand (+): 32.9 ± 1.0
  Vmaxapp, substrate galactose, with ligand (+): 4.1 ± 0.5

## COc1ccc(Cl)cc1C(=O)NCC(C)C [fragment 10]
hGALK1 [1]; 5 mM fragment
  change in hGALK1 activity, strictly standardized mean difference (SSMD): 0.80

## CCOC(=O)C1CCN(c2cnccn2)CC1 [fragment 1]
hGALK1 [1]; 5 mM fragment
  change in hGALK1 activity, strictly standardized mean difference (SSMD): < 0.5

## O=C1CCCC2=C1C1(CCCCC1)N=C(Nc1nc3ccccc3o1)N2 [T2, 2′-(benzo[d]oxazol-2-ylamino)-7′,8′-dihydro-1′H-spiro[cyclohexane-1,4′-quinazolin]-5′(6′H)-one, reference compound]
hGALK1 [3]; 50 μM galactose
  mode of inhibition with respect to ATP: competitive
hGALK1 [1]; 10 nM hGALK1, 100 μM galactose, 35 μM ATP, read-out: IC50
  IC50: 17 µM
hGALK1 [1]; 35 μM ATP
  mode of inhibition with respect to galactose: non-competitive

## Cc1ccc(C)c(OC(=O)c2ccncc2)c1 [fragment 7]
hGALK1 [1]; 5 mM fragment
  change in hGALK1 activity, strictly standardized mean difference (SSMD): < 0.5

## O=C(Cc1ccc(Cl)cc1)Nc1ncccn1 [fragment 3]
hGALK1 [3]
  Kmapp, substrate ATP, with ligand (+): 32.1 ± 8.4
  Vmaxapp, substrate ATP, with ligand (+): 4.2 ± 0.3
hGALK1 [3]; fragment 0–15 mM, 50 μM galactose
  decrease in Vmaxapp, ATP titration: 4 fold
hGALK1 [1]; 35 μM ATP
  mode of inhibition with respect to galactose: mixed
hGALK1 [1]
  Kmapp, substrate galactose, with ligand (+): 184.2 ± 2.1
  Vmaxapp, substrate galactose, with ligand (+): 5.1 ± 0.4
hGALK1 [1]; 5 mM fragment
  change in hGALK1 activity, strictly standardized mean difference (SSMD): 2.79
hGALK1 [1]; 5 mM fragment, single-point
  reduction of hGALK1 activity: 24 ± 1.6%
hGALK1 [1]; fragment 0–15 mM, 35 μM ATP
  decrease in Vmaxapp, galactose titration: 5 fold
  increase in Kmapp, galactose titration: 6 fold

## O=C(CNc1cnc2cc(Cl)c(Cl)cc2n1)NC1CC1 [compound 11]
hGALK1 [2]
  Kd: ~100 µM and 89 µM
hMVK
  inhibition at 1000 µM: < 10%
hGALK1 [3]; 50 μM galactose
  mode of inhibition with respect to ATP: noncompetitive
hGALK1 [3]
  Kmapp, substrate ATP, with ligand (+): 36.5 ± 5.8
  Vmaxapp, substrate ATP, with ligand (+): 11.1 ± 0.9
  inhibition at 2000 µM: > 50%
  Amplex Red LLEAT: 0.92 kJ/mol
hGALK1 [3]; [4]
  IC50: 31 µM
hGALK1 [3]; [5]
  IC50: 65 µM
hGALK2
  inhibition at 1000 µM: < 10%
hGALK1 [1]; 35 μM ATP
  mode of inhibition with respect to galactose: noncompetitive
hGALK1 [1]
  Kmapp, substrate galactose, with ligand (+): 36.5 ± 2.1
  Vmaxapp, substrate galactose, with ligand (+): 3.7 ± 0.4
  inhibition at 2000 µM: > 50%
  Kinase-Glo LLEAT: 0.795 kJ/mol
hGALK1 [1]; [6]
  IC50: 209 µM
hGALK1 [1]; [7]
  IC50: 116 µM
hGALK1 [1]; [8]
  LLEAT (Astex ligand lipophilicity efficiency score), range: 0.795 to 0.92 kJ/mol
hGALK1 [1]; [9]
  IC50: 31 to 209 µM

## O=C(NCCN1CCCC1=O)Nc1ccccc1 [fragment 5]
hGALK1 [1]; 5 mM fragment
  change in hGALK1 activity, strictly standardized mean difference (SSMD): < 0.5

## CS(=O)(=O)c1nccn1Cc1cscn1 [fragment 2]
hGALK1 [1]; 5 mM fragment
  change in hGALK1 activity, strictly standardized mean difference (SSMD): < 0.5

Source: paper PMC8056384 (ACS Chemical Biology, 2021)
